The source made the active and inactive calls. The rule behind the calls is not given here. Where a SMILES comes first, the peptide text is derived from it. The star is where a group is joined. Paclitaxel(2'-O-succinyl) = CC(=O)O[C@H]1C(=O)[C@@]2(C)[C@H]([C@H](OC(=O)c3ccccc3)[C@]3(O)C[C@H](OC(=O)[C@H](OC(=O)CCC(=O)*)[C@@H](NC(=O)c4ccccc4)c4ccccc4)C(C)=C1C3(C)C)[C@]1(OC(C)=O)CO[C@@H]1C[C@@H]2O
Assays:
[1] = test system: HEK-293T; assay: Antiproliferative activity against human HEK293T cells expressing ACE containing plasmid incubated for 48 hrs by MTT assay; assay type: functional, cell-based
[2] = test system: MDA-MB-468; assay: Antitumor activity in human […] cells xenografted in Balb/c mouse assessed as tumor weight at 9.6 micromol/kg, ip measured after 28 days (reference value: 0.43 g); assay type: functional; details: dose 9.6 µmol/kg, time 28 day
[3] = Drug uptake in BALB/c mouse xenografted with human […] cells assessed as PTX level in tumor at 17.6 micromol/kg, ip measured after 1 hr; assay type: ADME, organism-based, Neoplasm; details: in vivo, dose 17.6 µmol/kg
[4] = test system: MDA-MB-231; assay: Antiproliferative activity against ACE-positive human MDA-MB-231 cells incubated for 48 hrs by MTT assay; assay type: functional, cell-based; details: MDA-MB-231, 48 h
[5] = test system: HEK-293T; assay: Potency index, ratio of PTX IC50 to test compound IC50 antiproliferative activity against ACE-negative human HEK293T cells incubated for 48 hrs by MTT assay; assay type: functional
[6] = Acute toxicity in BALB/c mouse assessed as survival at 100 mg/kg, ip measured for 15 days; assay type: organism-based; details: in vivo, 360 h, time 15 day
[7] = Acute toxicity in BALB/c mouse assessed as rate of weight loss at 80 mg/kg, ip measured for 15 days; assay type: organism-based; details: in vivo, 360 h, time 15 day
[8] = Drug uptake in human MDA-MB-468 cells assessed as increase in PTX uptake rate at 10 to 20 uM measured after 2 hrs; assay type: ADME, cell-based; details: mda-mb-468, 2 h, dose 10-20 µM
[9] = Drug uptake in BALB/c mouse xenografted with human […] cells assessed as PTX level in tumor at 17.6 micromol/kg, ip measured after 4 hrs; assay type: ADME, organism-based, Neoplasm; details: in vivo, dose 17.6 µmol/kg
[10] = target: Angiotensin-converting enzyme (Homo sapiens, UniProt P12821); assay: Binding affinity to human recombinant ACE protein assessed as dissociation constant incubated for 15 mins by […] binding analysis
Angiotensin-converting enzyme, sequence (P12821 whole entry): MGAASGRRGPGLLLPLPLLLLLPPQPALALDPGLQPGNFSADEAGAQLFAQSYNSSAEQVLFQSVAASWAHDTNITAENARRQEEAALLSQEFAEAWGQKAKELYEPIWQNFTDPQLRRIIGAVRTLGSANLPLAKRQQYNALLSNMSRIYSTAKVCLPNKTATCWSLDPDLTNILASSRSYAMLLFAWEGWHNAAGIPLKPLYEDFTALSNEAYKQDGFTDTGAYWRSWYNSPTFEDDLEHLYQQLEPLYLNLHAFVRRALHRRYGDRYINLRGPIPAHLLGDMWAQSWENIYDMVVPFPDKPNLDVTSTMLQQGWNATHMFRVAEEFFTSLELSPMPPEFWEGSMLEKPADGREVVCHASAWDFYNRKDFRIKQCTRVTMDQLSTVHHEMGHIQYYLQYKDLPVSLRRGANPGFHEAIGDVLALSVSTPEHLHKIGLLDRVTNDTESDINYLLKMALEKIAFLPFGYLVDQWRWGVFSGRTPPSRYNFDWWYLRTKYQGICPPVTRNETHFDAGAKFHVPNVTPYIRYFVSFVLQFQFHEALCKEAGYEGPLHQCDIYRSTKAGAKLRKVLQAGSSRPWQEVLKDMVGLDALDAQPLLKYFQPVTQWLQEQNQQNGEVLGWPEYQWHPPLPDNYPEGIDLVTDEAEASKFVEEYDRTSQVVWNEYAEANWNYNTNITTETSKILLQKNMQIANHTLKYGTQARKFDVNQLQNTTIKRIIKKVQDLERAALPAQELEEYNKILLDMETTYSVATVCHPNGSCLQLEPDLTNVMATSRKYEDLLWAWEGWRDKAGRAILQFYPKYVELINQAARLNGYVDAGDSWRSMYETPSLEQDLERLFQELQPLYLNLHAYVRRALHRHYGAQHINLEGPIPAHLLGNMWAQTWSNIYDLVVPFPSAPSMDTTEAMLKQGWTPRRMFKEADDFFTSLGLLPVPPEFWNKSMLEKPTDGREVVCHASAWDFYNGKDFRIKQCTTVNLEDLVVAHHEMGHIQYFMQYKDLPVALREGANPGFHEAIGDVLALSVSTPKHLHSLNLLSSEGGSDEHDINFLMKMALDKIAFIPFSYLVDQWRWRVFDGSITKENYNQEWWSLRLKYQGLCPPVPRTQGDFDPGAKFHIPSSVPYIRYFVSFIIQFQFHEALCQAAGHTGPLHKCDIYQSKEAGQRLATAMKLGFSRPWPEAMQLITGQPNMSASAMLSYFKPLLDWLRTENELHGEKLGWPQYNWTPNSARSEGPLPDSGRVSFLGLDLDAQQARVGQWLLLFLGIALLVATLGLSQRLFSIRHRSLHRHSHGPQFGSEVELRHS

[11] = test system: MDA-MB-468; assay: Antitumor activity in human […] cells xenografted in Balb/c mouse assessed as reduction in tumor growth at 2.4 micromol/kg, ip measured after 4 days; assay type: functional, organism-based; details: dose 2.4 µmol/kg, time 4.0 day
[12] = test system: Mus musculus; assay: Toxicity in BALB/c mouse xenografted with human […] cells assessed as reduction in WBC count at 9.6 micromol/kg, ip measured after 28 days relative to control; assay type: organism-based; set-up: scale not given: the % may be the effect or the level left; details: 672 h, at 9.6 µmol/kg, time 28 day
[13] = test system: Mus musculus; assay: Toxicity in BALB/c mouse xenografted with human […] cells assessed as decrease in body weight at 9.6 micromol/kg, ip measured after 28 days relative to control; assay type: organism-based; set-up: scale not given: the % may be the effect or the level left; details: 672 h, at 9.6 µmol/kg, time 28 day
[14] = Acute toxicity in BALB/c mouse assessed as survival at 60 mg/kg, ip measured for 15 days; assay type: organism-based; details: in vivo, 360 h, time 15 day
[15] = test system: MDA-MB-468; assay: Antitumor activity in human […] cells xenografted in Balb/c mouse assessed as reduction in tumor growth at 2.4 micromol/kg, ip measured after 28 days relative to control; assay type: functional; set-up: scale not given: the % may be the effect or the level left; details: dose 2.4 µmol/kg, time 28 day
[16] = Stability of the compound in rat plasma assessed as half life at 10 uM measured after 72 hrs by LC/MS analysis; assay type: ADME, cell-free
[17] = Drug uptake in BALB/c mouse xenografted with human […] cells assessed as PTX level in liver at 17.6 micromol/kg, ip measured after 15 mins to 24 hrs; assay type: ADME, organism-based; details: in vivo, 0.25 h, dose 17.6 µmol/kg
[18] = test system: Mus musculus; assay: Toxicity in BALB/c mouse xenografted with human […] cells assessed as reduction in WBC count at 2.4 micromol/kg, ip measured after 28 days relative to control; assay type: organism-based; set-up: scale not given: the % may be the effect or the level left; details: 672 h, at 2.4 µmol/kg, time 28 day
[19] = Acute toxicity in BALB/c mouse assessed as survival at 80 mg/kg, ip measured for 15 days; assay type: organism-based; details: in vivo, 360 h, time 15 day
[20] = test system: MDA-MB-468; assay: Induction of apoptosis in ACE-positive human MDA-MB-468 cells assessed as increase in apoptotic cells at 10 nM measured after 48 hrs by Annexin V-FITC/PI staining based fluorescence microscopy; assay type: functional, cell-based
[21] = Stability of the compound in PBS buffer assessed as half life at 10 uM measured after 72 hrs by LC/MS analysis; assay type: physicochemical
[22] = Stability of the compound in rat plasma assessed as drug residual at 10 uM measured after 48 hrs by LC/MS analysis; assay type: ADME, cell-free; details: read-out: Stability
[23] = test system: MDA-MB-468; assay: Antitumor activity in human […] cells xenografted in Balb/c mouse assessed as tumor weight at 2.4 micromol/kg, ip measured after 28 days (reference value: 0.43 g); assay type: functional; details: dose 2.4 µmol/kg, time 28 day
[24] = test system: MDA-MB-468; assay: Antiproliferative activity against ACE-positive human MDA-MB-468 cells incubated for 48 hrs by MTT assay; assay type: functional, cell-based; details: MDA-MB-468, 48 h
[25] = Drug uptake in BALB/c mouse xenografted with human […] cells assessed as PTX level in kidney at 17.6 micromol/kg, ip measured after 15 mins to 24 hrs; assay type: ADME, organism-based; details: in vivo, 0.25 h, dose 17.6 µmol/kg
[26] = Drug uptake in BALB/c mouse xenografted with human […] cells assessed as PTX level in lung at 17.6 micromol/kg, ip measured after 15 mins to 24 hrs; assay type: ADME, organism-based; details: in vivo, 0.25 h, dose 17.6 µmol/kg
[27] = Acute toxicity in BALB/c mouse assessed as rate of weight loss at 100 mg/kg, ip measured for 15 days; assay type: organism-based; details: in vivo, 360 h, time 15 day
[28] = test system: MDA-MB-468; assay: Potency index, ratio of PTX IC50 to test compound IC50 antiproliferative activity against ACE-positive human MDA-MB-468 cells incubated for 48 hrs by MTT assay; assay type: functional
[29] = test system: MDA-MB-468; assay: Antitumor activity in human […] cells xenografted in Balb/c mouse assessed as reduction in tumor growth at 9.6 micromol/kg, ip measured after 28 days relative to control; assay type: functional; set-up: scale not given: the % may be the effect or the level left; details: dose 9.6 µmol/kg, time 28 day
[30] = test system: Mus musculus; assay: Toxicity in BALB/c mouse xenografted with human […] cells assessed as decrease in body weight at 2.4 micromol/kg, ip measured after 28 days relative to control; assay type: organism-based; set-up: scale not given: the % may be the effect or the level left; details: 672 h, at 2.4 µmol/kg, time 28 day
[31] = test system: MDA-MB-231; assay: Induction of apoptosis in ACE-positive human MDA-MB-231 cells assessed as increase in apoptotic cells at 10 nM measured after 48 hrs by Annexin V-FITC/PI staining based fluorescence microscopy; assay type: functional, cell-based
[32] = test system: MDA-MB-231; assay: Potency index, ratio of PTX IC50 to test compound IC50 antiproliferative activity against ACE-positive human MDA-MB-231 cells incubated for 48 hrs by MTT assay; assay type: functional
[33] = test system: HEK-293T; assay: Antiproliferative activity against ACE-negative human HEK293T cells incubated for 48 hrs by MTT assay; assay type: functional, cell-based
[34] = Acute toxicity in BALB/c mouse assessed as rate of weight loss at 60 mg/kg, ip measured for 15 days; assay type: organism-based; details: in vivo, 360 h, time 15 day
[35] = test system: MDA-MB-231; assay: Induction of apoptosis in ACE-positive human MDA-MB-231 cells assessed as increase in early apoptotic cells by measuring fragmented nuclei at 10 nM after 48 hrs by DAPI staining based fluorescence microscopy; assay type: functional, cell-based
[36] = Drug uptake in BALB/c mouse xenografted with human […] cells measured in tumor at 17.6 micromol/kg, ip measured after 4 hrs; assay type: ADME, organism-based, Neoplasm; details: dose 17.6 µmol/kg, read-out: Drug uptake
[37] = Drug uptake in BALB/c mouse xenografted with human […] cells measured in tumor at 17.6 micromol/kg, ip measured after 1 hr; assay type: ADME, organism-based, Neoplasm; details: dose 17.6 µmol/kg, read-out: Drug uptake
[38] = Stability of the compound in rat plasma assessed as drug residual at 10 uM measured after 72 hrs by LC/MS analysis; assay type: ADME, cell-free; details: read-out: Stability
[39] = Acute toxicity in BALB/c mouse assessed as survival at 15 mg/kg, ip measured for 15 days; assay type: organism-based; details: in vivo, 360 h, time 15 day
[40] = test system: Mus musculus; assay: Toxicity in BALB/c mouse xenografted with human […] cells assessed as body weight loss at 2.4 micromol/kg, ip measured upto 24 days; assay type: organism-based; details: 576 h, dose 2.4 µmol/kg, time < 24 day
[41] = Stability of the compound in PBS buffer assessed as drug residual at 10 uM measured after 72 hrs by LC/MS analysis; assay type: physicochemical; details: read-out: Stability
[42] = Acute toxicity in BALB/c mouse assessed as rate of weight loss at 20 mg/kg, ip measured for 15 days; assay type: organism-based; details: in vivo, 360 h, time 15 day
[43] = Acute toxicity in BALB/c mouse assessed as rate of weight loss at 15 mg/kg, ip measured for 15 days; assay type: organism-based; details: in vivo, 360 h, time 15 day
[44] = Acute toxicity in BALB/c mouse assessed as survival at 20 mg/kg, ip measured for 15 days; assay type: organism-based; details: in vivo, 360 h, time 15 day

## CC[C@H](C)[C@H](NC(=O)[C@H](CCC(N)=O)NC(=O)[C@@H]1CCCN1C(=O)[C@H](CCCNC(=N)N)NC(=O)[C@@H]1CCCN1C(=O)[C@H](Cc1c[nH]c2ccccc12)NC(=O)[C@H](CCC(=O)O)NC(=O)CCC(=O)O[C@@H](C(=O)O[C@H]1C[C@@]2(O)[C@@H](OC(=O)c3ccccc3)[C@@H]3[C@]4(OC(C)=O)CO[C@@H]4C[C@H](O)[C@@]3(C)C(=O)[C@H](OC(C)=O)C(=C1C)C2(C)C)[C@@H](NC(=O)c1ccccc1)c1ccccc1)C(=O)N1CCC[C@H]1C(=O)N1CCC[C@H]1C(N)=O ({Paclitaxel(2'-O-succinyl)}-EWPRPQIPP-NH2)
[1]
  Activity: Active
[2]
  Activity: 0.16 g
[3]
  Drug uptake: 18067 ng/g
[4]
  IC50: 9.5 nM
[5]
  Ratio IC50: 91.9
[6]
  Activity: Non-Toxic
[7]
  Activity: 4.5%
[8]
  Drug uptake: Active
[9]
  Drug uptake: 10458 ng/g
[10]; read-out: Kd
  Kd: 380 nM
[11]
  Activity: inactive
[12]
  Activity: 22%
[13]
  Activity: 6.4%
[14]
  Activity: Non-Toxic
[15]
  Activity: 54%
[16]
  half-life at 10 µM: 5.82 h
[17]
  Drug uptake: Active
[18]
  Activity: 17%
[19]
  Activity: Non-Toxic
[20]
  Activity: Active
[21]
  half-life at 10 µM: 57.8 h
[22]
  remaining at 48 h, 10 µM: 0.169%
[23]
  Activity: 0.2 g
[24]
  IC50: 12.3 nM
[25]
  Drug uptake: Active
[26]
  Drug uptake: Active
[27]
  Activity: 7.2%
[28]
  Ratio IC50: 4.1
[29]
  Activity: 62%
[30]
  Activity: 2.8%
[31]
  Activity: Active
[32]
  Ratio IC50: 3.1
[33]
  IC50: 616 nM
[34]
  Activity: 1.9%

## CC(=O)O[C@H]1C(=O)[C@@]2(C)[C@H]([C@H](OC(=O)c3ccccc3)[C@]3(O)C[C@H](OC(=O)[C@H](O)[C@@H](NC(=O)c4ccccc4)c4ccccc4)C(C)=C1C3(C)C)[C@]1(OC(C)=O)CO[C@@H]1C[C@@H]2O [PACLITAXEL]
[35]
  Activity: Active
[4]
  IC50: 3.1 nM
[36]
  concentration at 4 h: 2250 ng/g
[10]
  Kd: Not Active
[37]
  concentration at 1 h: 6470 ng/g
[11]
  Activity: inactive
[15]
  Activity: 15%
[38]
  remaining at 72 h, 10 µM: 47.6%
[39]
  Activity: Non-Toxic
[40]
  Activity: Non-Toxic
[18]
  Activity: 6.2%
[20]
  Activity: Active
[41]
  remaining at 72 h, 10 µM: 70.3%
[23]
  Activity: 0.26 g
[24]
  IC50: 3 nM
[42]
  Activity: 8.7%
[43]
  Activity: 4%
[29]
  Activity: 30%
[44]
  Activity: Non-Toxic
[31]
  Activity: Active
[33]
  IC50: 6.7 nM
